The record followed here is US6811993B2, “Diagnostic and screening methods based on monocyte PKC activity” (Joslin Diabetes Center, Inc., priority 2000, dated 2004).

This assay relates to PKC. The assay can be described thus: PKC activity in mononuclear cells of STZ-induced diabetic rats after treatment. It counts as in vivo, rat. The conditions noted are these: male Sprague-Dawley rats, STZ-induced diabetes (56% increase vs control), insulin pellet inserted subcutaneously, after 2 weeks. The protocol:
Monocytes of rats and also human control subjects and patients with diabetes were isolated from blood with anticoagulant of sodium citrate. The blood sample was put onto the same volume of Histopaque-1077 (Sigma) and centrifuged at 400×g for 30 minutes at room temperature. The layer containing mononuclear cells was transferred to a new tube and washed with phosphate-buffered saline (PBS). After centrifugation at 400×g for 10 minutes, cell pellet was suspended with a solution of 144 mM NH4Cl and 17 mM Tris-HCl, pH 7.65 to lyse the contaminated red blood cells. Mononuclear cells were washed with PBS and used in this study.
Mononuclear cells of human and rats and retina of rats were suspended in a buffer containing 137 mM NaCl, 4.3 mM KCl, […] Na2HPO4, 0.4 mM KH2PO4, 5.5 mM D-Glucose, 10 mM MgCl2, 1 mM CaCl2, 25 mM β-glycerophosphate, and 20 mM HEPES, pH 7.2. […] The paper was put into a scientillation vial and radioactivity of ^32p was assayed by scientillation counter. The paper was put into a scintillation vial and radioactivity of ^32p incorporated into substrate peptide per minute per mg of protein, and calculated by the difference between the activity in the presence of substrate peptide and the activity in the absence of the peptide.
Male Sprague-Dawley rats at the age of 6 weeks were used in this study. […] PKC activity in these tissues was measured as described below.

For the substance insulin, the “PKC activity in rat mononuclear cells” value is “restored to the level of control rats”.
